Structures can show the parent of a compound that is named as a salt. Where two headings read alike, the source gives them in different places.
Assays:
Type in all cases: cell-based, human
[1] = tested on: HTT mRNA; assay: Splicing RT-qPCR gene panel, HTT canonical junction (CJ) mRNA; settings: Homo sapiens, Tables 4A/4B, read-out: HTT (IC50, decrease in CJ mRNA, gene panel)
In short: (§1)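 A673/K562, 24 h cpd, 11-pt 3-fold from 10 uM, DMSO ≤0.25%. Lysis, direct RT-qPCR of CJ isoform, ≥duplicate. GAPDH/GUSB/PPIA norm, ΔΔCt vs DMSO → RQ → % response.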

[2] = tested on: HTT mRNA; assay: Splicing RT-qPCR assay, HTT canonical (CJ) and alternative (AJ) junction mRNA; settings: Homo sapiens
In short: (§2)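 Compound-induced exon inclusion is tracked as an increase in AJ transcript alongside the CJ transcript. Cells (A673 normalized to PPIA; K562 to GAPDH or GUSB) are dosed 24 h with a serial dilution topping at 10 uM, ≤0.25% DMSO, then lysed and analysed by RT-qPCR in at least duplicate.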

[3] = tested on: MYB mRNA; assay: Splicing RT-qPCR assay, MYB canonical (CJ) and alternative (AJ) junction mRNA; settings: Homo sapiens
In short: as §2

[4] = tested on: Target C mRNA; assay: Splicing RT-qPCR gene panel, Target C canonical junction (CJ) mRNA; settings: Homo sapiens, Tables 4A/4B, read-out: Target C (IC50, decrease in CJ mRNA, gene panel)
In short: as §1

[5] = tested on: SMN2 mRNA; assay: Splicing RT-qPCR gene panel, SMN2 canonical junction (CJ) mRNA; settings: Homo sapiens, Tables 4A/4B, read-out: SMN2 (IC50, decrease in CJ mRNA, gene panel)
In short: as §1

[6] = 24 h, A673 or K562 cells, 24 hours compound treatment, read-out: HTT CJ (IC50, decrease in canonical junction mRNA)
[7] = A673 or K562 cells, 24 hours compound treatment, read-out: HTT AJ (AC50, increase in alternative junction mRNA)
[8] = 24 h, A673 or K562 cells, 24 hours compound treatment, RT-qPCR, read-out: MYB AJ (AC50, increase in alternative junction mRNA)
[9] = 24 h, A673 or K562 cells, 24 hours compound treatment, RT-qPCR, read-out: MYB CJ (IC50, decrease in canonical junction mRNA)
[10] = Tables 4A/4B, canonical junction qPCR panel, read-out: MYB (IC50, decrease in CJ mRNA, gene panel)

SMILES | IC50 [1] | IC50 [2, 6] | AC50 [2, 7] | AC50 [3, 8] | IC50 [3, 9] | IC50 [3, 10] | IC50 [4] | IC50 [5] | AC50 ([2]; Table 3B, alternative junction mRNA, read-out: HTT AJ (AC50, increase in AJ mRNA)) | IC50 ([2]; Table 3B, canonical junction mRNA, read-out: HTT CJ (IC50, decrease in CJ mRNA)) | IC50 ([3]; Table 3B, canonical junction mRNA, RT-qPCR, read-out: MYB CJ (IC50, decrease in CJ mRNA)) | AC50 ([3]; Table 3B, alternative junction mRNA, RT-qPCR, read-out: MYB AJ (AC50, increase in AJ mRNA))
CCN1CCC(c2ccc(C(=O)Nc3cc(F)c4nc(C)cn4c3)c3nn(C)cc23)CC1 [Compound 210] | 100 to 1000 nM | 100 to 1000 nM | 100 to 1000 nM | < 100 nM | < 100 nM | < 100 nM | 1000 to 10000 nM | < 100 nM | – | – | – | –
Cc1cn2cc(NC(=O)c3ccc(N4CCNCC4)c4cn(CC5CCO5)nc34)cc(F)c2n1 (centres unmarked) [Compound 338, N-{8-fluoro-2-methylimidazo[1,2-a]pyridin-6-yl}-2-(oxetan-2-ylmethyl)-4-(piperazin-1-yl)indazole-7-carboxamide] | 1000 to 10000 nM | 1000 to 10000 nM | 1000 to 10000 nM | 100 to 1000 nM | 100 to 1000 nM | 100 to 1000 nM | > 10000 nM | < 100 nM | – | – | – | –
CCn1cc2c(N3CCN(C)CC3)ncc(C(=O)Nc3cc(F)c4nc(C)cn4c3)c2n1 [Compound 954] | 1000 to 10000 nM | – | – | – | – | 100 to 1000 nM | 1000 to 10000 nM | < 100 nM | 1000 to 10000 nM | 1000 to 10000 nM | 100 to 1000 nM | 100 to 1000 nM
CCn1cc2c(N3CC[C@@H](NC4CC4)C3)ccc(C(=O)Nc3cc(F)c4nc(C)cn4c3)c2n1 [Compound 409, (R)-4-(3-(cyclopropylamino)pyrrolidin-1-yl)-2-ethyl-N-(8-fluoro-2-methylimidazo[1,2-a]pyridin-6-yl)-2H-indazole-7-carboxamide] | > 10000 nM | > 10000 nM | > 10000 nM | < 100 nM | 100 to 1000 nM | 100 to 1000 nM | > 10000 nM | < 100 nM | – | – | – | –
CCn1cc2c(N3C[C@H]4CC[C@@H](C3)N4)ccc(C(=O)Nc3cc(F)c4nc(C)cn4c3)c2n1 [Compound 289, 4-[(1R,5S)-3,8-diazabicyclo[3.2.1]octan-3-yl]-2-ethyl-N-{8-fluoro-2-methylimidazo[1,2-a]pyridin-6-yl}indazole-7-carboxamide] | 1000 to 10000 nM | 1000 to 10000 nM | > 10000 nM | 100 to 1000 nM | 100 to 1000 nM | 100 to 1000 nM | > 10000 nM | < 100 nM | – | – | – | –
Cc1cn2cc(NC(=O)c3ccc(N4CCNCC4)c4cn(CCO)nc34)cc(F)c2n1 [Compound 291, N-{8-fluoro-2-methylimidazo[1,2-a]pyridin-6-yl}-2-(2-hydroxyethyl)-4-(piperazin-1-yl)indazole-7-carboxamide hydrochloride] | 1000 to 10000 nM | 1000 to 10000 nM | 1000 to 10000 nM | 100 to 1000 nM | 100 to 1000 nM | 100 to 1000 nM | 1000 to 10000 nM | < 100 nM | – | – | – | –
Cc1cn2cc(NC(=O)c3ccc(N4CCNCC4)c4cn(Cc5ccncc5)nc34)cc(F)c2n1 [Compound 313, N-{8-fluoro-2-methylimidazo[1,2-a]pyridin-6-yl}-4-(piperazin-1-yl)-2-(pyridin-4-ylmethyl)indazole-7-carboxamide] | > 10000 nM | > 10000 nM | > 10000 nM | 1000 to 10000 nM | 1000 to 10000 nM | 1000 to 10000 nM | 1000 to 10000 nM | 100 to 1000 nM | – | – | – | –
CNC1CCN(c2ccc(C(=O)Nc3cc(F)c4nc(C)cn4c3)c3nn(C)cc23)C1 (stereo in doubt) [Compound 387, N-{8-fluoro-2-methylimidazo[1,2-a]pyridin-6-yl}-2-methyl-4-[(3R)-3-(methylamino)pyrrolidin-1-yl]indazole-7-carboxamide] | 1000 to 10000 nM | 1000 to 10000 nM | 1000 to 10000 nM | < 100 nM | < 100 nM | < 100 nM | > 10000 nM | < 100 nM | – | – | – | –
Cc1c(O)c(NC(=O)c2ccc(N3CCNCC3)c3cn(C)nc23)cc2cn(C)nc12 [Compound 325, N-(6-hydroxy-2,7-dimethylindazol-5-yl)-2-methyl-4-(piperazin-1-yl) indazole-7-carboxamide hydrochloride] | > 10000 nM | > 10000 nM | > 10000 nM | 1000 to 10000 nM | 1000 to 10000 nM | 1000 to 10000 nM | > 10000 nM | < 100 nM | – | – | – | –
Cc1cn2cc(NC(=O)c3ccc(N4CCNC[C@H]4C)c4cn(C)nc34)cc(F)c2n1 [Compound 447, N-{8-fluoro-2-methylimidazo[1,2-a]pyridin-6-yl}-2-methyl-4-[(2R)-2-methylpiperazin-1-yl]indazole-7-carboxamide] | 1000 to 10000 nM | 100 to 1000 nM | 100 to 1000 nM | < 100 nM | < 100 nM | 100 to 1000 nM | 1000 to 10000 nM | < 100 nM | – | – | – | –

Source: patent US20250154169A1, “COMPOUNDS AND METHODS FOR MODULATING SPLICING” (REMIX THERAPEUTICS INC., priority 2021, published 2025)
